One test deals with DU145. The test is described as follows: In vitro tumor cell proliferation, DU145. The class given is cell-based, human. Particulars: many values given with an undefined *, read-out: In vitro Tumor Cell Proliferation (IC50, μM) Prostate DU145. In short, it runs like this: (§1)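 Tumor cells were seeded overnight at 37° C, then exposed to drug diluted in culture medium for 3 days, refed with fresh drug-containing medium and kept 4 more days. Cells were fixed with 10% trichloroacetic acid and stained with 0.4% sulforhodamine B; alternatively, CyQUANT read proliferation after 3 days' drug exposure.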

The target of the next test is T1, cdk4/cyclin D1 (Homo sapiens, UniProt P11802).
T1 construct: made in house; host or cells: Sf9 insect cells (Bac-to-Bac baculovirus, pFastBac)
T1 sequence (P11802 whole entry): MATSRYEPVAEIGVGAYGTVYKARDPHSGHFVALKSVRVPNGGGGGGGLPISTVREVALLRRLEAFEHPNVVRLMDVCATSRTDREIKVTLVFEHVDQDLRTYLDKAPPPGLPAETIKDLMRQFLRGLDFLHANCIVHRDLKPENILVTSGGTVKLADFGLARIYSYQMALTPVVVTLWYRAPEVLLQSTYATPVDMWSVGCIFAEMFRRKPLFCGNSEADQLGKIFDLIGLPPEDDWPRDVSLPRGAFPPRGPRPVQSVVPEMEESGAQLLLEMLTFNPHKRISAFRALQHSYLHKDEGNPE
T1 sequence (P24385 whole entry partner): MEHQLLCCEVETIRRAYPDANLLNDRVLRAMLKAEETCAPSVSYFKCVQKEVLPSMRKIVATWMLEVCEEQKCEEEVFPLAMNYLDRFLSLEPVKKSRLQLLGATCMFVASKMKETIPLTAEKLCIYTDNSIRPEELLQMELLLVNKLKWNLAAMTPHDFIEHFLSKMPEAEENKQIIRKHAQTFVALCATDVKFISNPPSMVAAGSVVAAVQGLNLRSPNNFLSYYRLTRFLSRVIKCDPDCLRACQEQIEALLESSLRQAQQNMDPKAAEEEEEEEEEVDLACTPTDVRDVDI
The test is described as follows: Cyclin-dependent Kinase 4 Assay (cdk4/cyclin D1, GST-Rb substrate). Format: biochemical. Particulars: cdk4/cyclin D1 insect cell lysate, 10 μM ATP, 30 min at 37° C., several values = separate determinations, read-out: CDK4 Inhibition IC50. A digest of the protocol:
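Insect-cell lysate of coexpressed cdk4/cyclin D1 (0.1 μg) acts on GST-Rb (0.5 μg) bound to glutathione-Sepharose, in 50 mM HEPES pH 7.5, 10 mM MgCl2, 1 mM EGTA. Reaction runs 30 min at 37 °C, then is stopped by filtration and TNEN washes. Rb phosphorylation read by scintillation counting; IC50 derived.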

The next test relates to PC-3. Put plainly: In vitro tumor cell proliferation, PC-3. The class given is cell-based, human. The conditions noted are these: many values given with an undefined *, read-out: In vitro Tumor Cell Proliferation (IC50, μM) Prostate PC-3. In short, it runs like this: as §1
The next test has as its system MDA-MB-231. The test is described as follows: In vitro tumor cell proliferation, MDA-MB-231. The conditions noted are these: sulforhodamine B or CyQUANT assay, many values given with an undefined *, read-out: In vitro Tumor Cell Proliferation (IC50, μM) Breast MDA-MB-231. The class given is cell-based, human. A digest of the protocol: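 Cells plated overnight at 37 °C, then exposed to drug for 3 days, refed with fresh drug and incubated 4 more days. Read-out by sulforhodamine B staining after TCA fixation; alternatively, CyQUANT after 3-day drug exposure and freezing at −80 °C.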

Another test has as its system Colo-205. The test is described as follows: In vitro tumor cell proliferation, Colo-205. Format: cell-based. The conditions noted are these: values given with an undefined *, read-out: In vitro Tumor Cell Proliferation (IC50, μM) Colon Colo-205. A digest of the protocol:
as §1

The test system of another test is DMS-114. The test is described as follows: In vitro tumor cell proliferation, DMS-114. Format: cell-based, human. Particulars: many values given with an undefined *, read-out: In vitro Tumor Cell Proliferation (IC50, μM) Lung DMS-114. A digest of the protocol: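 Human small cell lung carcinoma DMS-114 cells plated overnight, then drug-treated for 3 days, medium and drug renewed, and incubated 4 more days. Growth read by sulforhodamine B staining after TCA fixation; alternatively by CyQUANT after 3 days' drug exposure and freezing at −80 °C.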

The next test deals with T2, cdk2/cyclin E (Homo sapiens, UniProt P24941).
T2 construct: made in house; host or cells: insect cells (baculovirus co-infection)
Put plainly: Cyclin-Dependent Kinase 2 Assay (cdk2/cyclin E, GST-Rb substrate). The conditions noted are these: recombinant cdk2/cyclin E, 10 μM ATP, 30 min at 30° C., several values in a cell = separate determinations, read-out: CDK-2 Inhibition IC50. Format: biochemical. On the procedure:
Substrate: GST-Rb as described above for cdk4/cyclin D1
Assay conditions for cdk2/cyclin E were identical to those for cdk4/cyclin D1 including the substrate. The concentration of recombinant cdk2/cyclin E in the assay was 0.1 μg per 100 μl assay. Incubation was for 30 min at 30° C.

Another test deals with A549. The test is described as follows: In vitro tumor cell proliferation, A549. Format: cell-based, human. The conditions noted are these: many values given with an undefined *, read-out: In vitro Tumor Cell Proliferation (IC50, μM) Lung A549. A digest of the protocol:
as §1

In another test the test system is HT-29. Put plainly: In vitro tumor cell proliferation, HT-29. Format: cell-based, human. Particulars: many values given with an undefined *, read-out: In vitro Tumor Cell Proliferation (IC50, μM) Colon HT-29. A digest of the protocol: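 HT-29 cells seeded overnight at 37° C, then exposed to drug for 3 days, refed with fresh drug-containing medium for 4 more days. Proliferation read by sulforhodamine B staining after TCA fixation; alternatively by CyQUANT after freezing plates at −80° C following 3 days' drug exposure.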

In the next test the test system is MDA-MB-435. Put plainly: In vitro tumor cell proliferation, MDA-MB-435. The class given is cell-based. The conditions noted are these: values given with an undefined *, read-out: In vitro Tumor Cell Proliferation (IC50, μM) Breast MDA-MB-435. In short, it runs like this:
as §1

The mark [1] stands for this setting: Homo sapiens, MDA-MB-231, MDA-MB-231.
The mark [2] stands for this setting: Homo sapiens, COLO 205, Colo-205.
The mark [3] stands for this setting: Homo sapiens, MDA-MB-435, MDA-MB-435.

“And” between values parts separate entries of the source, which are not always exact repeats. Identical values can stand only once. Counter-ions that a name gives are not always drawn. Like-named read-outs stand apart in the source and are kept apart here.

Turning to `COc1ccc2[nH]cc(CCNc3nc(N[C@H]4CC[C@H](N)CC4)nc4c3ncn4C3CCCC3)c2c1` [Example 9, 2-[Trans-(4-aminocyclohexyl)amino]-6-[(3-(5-methoxyindolyl))-2-ethylamino]-9-cyclopentylpurine dihydrochloride], the IC50 in the test with DU145 (DU145, dihydrochloride) is 4 µM; in the test with DU145 (Homo sapiens, DU-145, DU145), 3.5 µM; on cdk4/cyclin D1 it was 3.9 µM and 2 µM; in the test on PC-3 (Homo sapiens, PC-3, PC-3), 0.41 µM; with PC-3 (PC-3, dihydrochloride), 0.28 µM; with MDA-MB-231 (setting [1]), 0.7 µM. Moreover, the IC50 in the test on MDA-MB-231 (MDA-MB-231, dihydrochloride) turned out to be 1.1 µM; with Colo-205 (Colo-205, dihydrochloride), 0.94 µM; with Colo-205 (setting [2]), 0.76 µM; in the test on DMS-114 (DMS-114, dihydrochloride), 1.4 µM; in the test with DMS-114 (Homo sapiens, DMS-114, DMS-114), 1 µM; on cdk2/cyclin E it was 0.165 µM. The IC50 in the test with A549 (A549, dihydrochloride) was 2 µM; in the test on A549 (Homo sapiens, A549, A549), 1.2 µM; with HT-29 (HT-29, dihydrochloride), 0.96 µM; in the test with HT-29 (Homo sapiens, HT-29, HT-29) it was 0.87 µM; in the test with MDA-MB-435 (setting [3]), greater than 10 µM.
Regarding `CCCCCc1ccc(Nc2nc(N[C@H]3CC[C@H](N)CC3)nc3c2ncn3C2CCCC2)cc1` [Example 23, 2-[Trans-(4-aminocyclohexyl)amino]-6-[(4-pentyl)phenylamino]-9-cyclopentylpurine dihydrochloride], the IC50 in the test on DU145 (DU145, dihydrochloride) is 3.2 µM and 3 µM; with DU145 (Homo sapiens, DU-145, DU145) it was 3.1 µM; at cdk4/cyclin D1, 4 µM; in the test on PC-3 (Homo sapiens, PC-3, PC-3), 3.1 µM; in the test with PC-3 (PC-3, dihydrochloride) it was 2.7 µM and 2.5 µM and 2.2 µM; in the test on MDA-MB-231 (setting [1]), 2.7 µM. The IC50 was 2.6 µM and 2.5 µM in the test on MDA-MB-231 (MDA-MB-231, dihydrochloride); 2.8 µM and 2.7 µM with Colo-205 (Colo-205, dihydrochloride); 2.9 µM with Colo-205 (setting [2]); 2.1 µM in the test with DMS-114 (DMS-114, dihydrochloride); 2.6 µM in the test with DMS-114 (Homo sapiens, DMS-114, DMS-114); 2 µM and 0.95 µM and 0.76 µM at cdk2/cyclin E. For the same molecule, the IC50 with A549 (A549, dihydrochloride) is 2.5 µM; with A549 (Homo sapiens, A549, A549), 2.3 µM; with HT-29 (HT-29, dihydrochloride) it was 2.4 µM and 2.3 µM; in the test on HT-29 (Homo sapiens, HT-29, HT-29) it was 2.5 µM; in the test with MDA-MB-435 (setting [3]), 3.1 µM; in the test with MDA-MB-435 (MDA-MB-435, dihydrochloride), 3.5 µM and 3 µM and 3.3 µM.
Regarding `N[C@H]1CC[C@H](Nc2nc(NC3CCN(Cc4c(Cl)cccc4Cl)CC3)c3ncn(C4CCCC4)c3n2)CC1` [Example 45, 2-[Trans-(4-aminocyclohexyl)amino]-6-[4-(1-(2,6-dichlorobenzyl))piperidinylamino]-9-cyclopentylpurine], the IC50 with DU145 (DU145) was determined as 0.46 µM; in the test with DU145 (Homo sapiens, DU-145, DU145), 0.51 µM; at cdk4/cyclin D1, 6.7 µM; with PC-3 (Homo sapiens, PC-3, PC-3) it was 0.63 µM; in the test on PC-3 (PC-3), 0.74 µM; in the test with MDA-MB-231 (setting [1]) it was 0.89 µM. In addition, the IC50 with MDA-MB-231 (MDA-MB-231) is 0.71 µM; in the test on Colo-205 (Colo-205), 0.48 µM; with Colo-205 (setting [2]), 0.53 µM; with DMS-114 (DMS-114), 0.71 µM; in the test with DMS-114 (Homo sapiens, DMS-114, DMS-114), 1.3 µM; at cdk2/cyclin E, 1.1 µM and 0.9 µM. The IC50 with A549 (A549) came out at 0.32 µM; with A549 (Homo sapiens, A549, A549), 0.46 µM; in the test with HT-29 (HT-29), 0.55 µM; in the test on HT-29 (Homo sapiens, HT-29, HT-29), 0.71 µM; in the test on MDA-MB-435 (setting [3]), 0.96 µM; in the test on MDA-MB-435 (MDA-MB-435), 0.75 µM.
On to `N[C@H]1CC[C@H](Nc2nc(NC3CCN(Cc4cccc(F)c4F)CC3)c3ncn(C4CCCC4)c3n2)CC1` [Example 147-e, 2-[Trans-(4-aminocyclohexyl)amino]-6-[4-1-(2,3-difluorobenzyl)]piperidinylamino]-9-cyclopentylpurine trihydrochloride], for which the IC50 in the test with DU145 (DU145, trihydrochloride) was 0.41 µM; in the test with DU145 (Homo sapiens, DU-145, DU145), 0.35 µM; at cdk4/cyclin D1, 2.7 µM and 4.6 µM; with PC-3 (Homo sapiens, PC-3, PC-3) it was 0.47 µM; in the test with PC-3 (PC-3, trihydrochloride), 0.35 µM; in the test with MDA-MB-231 (setting [1]) it was 0.58 µM. Further, the IC50 with MDA-MB-231 (MDA-MB-231, trihydrochloride) is 0.3 µM; in the test with Colo-205 (Colo-205, trihydrochloride) it was 0.32 µM; in the test on Colo-205 (setting [2]), 0.34 µM; in the test on DMS-114 (DMS-114, trihydrochloride), 0.5 µM; with DMS-114 (Homo sapiens, DMS-114, DMS-114), 0.58 µM; at cdk2/cyclin E, 0.34 µM and 0.23 µM and 0.46 µM. For the same molecule, the IC50 in the test with A549 (A549, trihydrochloride) amounted to 0.3 µM; with A549 (Homo sapiens, A549, A549), 0.35 µM; in the test with HT-29 (HT-29, trihydrochloride), 0.3 µM; in the test on HT-29 (Homo sapiens, HT-29, HT-29) it was 0.59 µM; with MDA-MB-435 (setting [3]) it was 0.62 µM; in the test on MDA-MB-435 (MDA-MB-435, trihydrochloride) it was 0.6 µM.
Regarding `N[C@H]1CC[C@H](Nc2nc(NNc3ccc(Cl)cc3Cl)c3ncn(C4CCCC4)c3n2)CC1` [Example 147, 2-[Trans-(4-aminocyclohexyl)amino]-6-(2,4-dichlorophenylhydrazino)-9-cyclopentylpurine dihydrochloride], the IC50 in the test on DU145 (DU145, dihydrochloride) is 5.7 µM; in the test on DU145 (Homo sapiens, DU-145, DU145), 3.1 µM; at cdk4/cyclin D1, 5.7 µM and 6.1 µM; in the test with PC-3 (Homo sapiens, PC-3, PC-3) it was 3.2 µM; in the test on PC-3 (PC-3, dihydrochloride), 2.3 µM; in the test with MDA-MB-231 (setting [1]), 5.1 µM. Further, the IC50 in the test on MDA-MB-231 (MDA-MB-231, dihydrochloride) turned out to be 3.2 µM; in the test with Colo-205 (Colo-205, dihydrochloride), 3.5 µM; in the test with Colo-205 (setting [2]), 5.7 µM; on cdk2/cyclin E, 0.268 µM; in the test on A549 (A549, dihydrochloride), 2.6 µM; in the test on A549 (Homo sapiens, A549, A549) it was 2.7 µM. Also, the IC50 worked out at 2 µM in the test on HT-29 (HT-29, dihydrochloride); 2.8 µM in the test with HT-29 (Homo sapiens, HT-29, HT-29); 5.6 µM in the test on MDA-MB-435 (setting [3]); 6 µM in the test with MDA-MB-435 (MDA-MB-435, dihydrochloride).

These data come from US6479487B1, “6, 9-disubstituted 2-[trans-(4-aminocyclohexyl)amino] purines” (Aventis Pharmaceuticals Inc., priority 1998, dated 2002).
